Data: patent publication US7351397B2, “Stabilization of radiopharmaceutical compositions using hydrophilic 6-hydroxy chromans” (CIS bio international, priority 2000, dated 2008)

Key:
Format in all cases: physicochemical
[1] = Radiolabelling yield (RCP) by reversed phase HPLC of 99mTc-labelled bisamide bisthiol non-peptide chelator with and without Trolox
Text: The non-peptide chelator was radiolabelled with ^99mTc in the presence and absence of Trolox® using the placebo vial heated preparation procedure as described in Example 4.

[2] = Radiolabelling yield (RCP) by reversed phase HPLC of 99mTc-labelled monoamine, diamide, single thiol peptide chelator with and without Trolox
Method: Lyophilized kit “placebo” vials were prepared containing sodium glucoheptonate dihydrate, edetate disodium dihydrate, and stannous chloride dihydrate at the concentrations set forth in Table 1 (control formulation).
The peptide chelator was radiolabelled with ^99mTc in the presence and absence of Trolox®. The peptide chelator was dissolved in water at a concentration of 1 mg/mL, and 50 μg (50 μL) of the peptide was added to each of three placebo vials. Ethanol and Trolox® were added to the control and Trolox®, preparations as described in Example 11. In addition, 100 μL phosphate buffered saline (PBS) was added to each preparation.

[3] = Radiolabelling yield (RCP) by reversed phase HPLC of 99mTc-labelled depreotide from lyophilized kits with Trolox; conditions: prepared from formulated kits
Method: Lyophilized kit vials were prepared containing depreotide, Trolox®, and other components as described in Table 3.
Some of the formulations were also radiolabelled in a heated preparation (heat in a boiling water bath for 10 minutes).

[4] = Radiolabelling yield (RCP) by reversed phase HPLC of 99mTc depreotide from lyophilized kits after accelerated temperature (40° C.) storage; conditions: lyophilized kits thermally stressed by accelerated temperature storage
Method: Lyophilized kits were prepared containing depreotide, Trolox®, and other components as described in Table 5. […] The kits were stored for one week at 40° C. Some kits were also stored at −10° C. as controls.

[5] = Radiolabelling yield (RCP) by reversed phase HPLC of 99mTc-labelled glycoprotein IIb/IIIa receptor-binding peptide with and without Trolox
Method: Lyophilized kit vials were prepared containing the peptide (50 μg), sodium glucoheptonate dihydrate (10 mg), stannous chloride dihydrate (50 μg), and edetate disodium dihydrate (100 μg). The formulation was adjusted to pH 7.4 prior to lyophilization.
The lyophilized kits were radiolabelled with ^99mTc in the presence and absence of Trolox®. To the Trolox® preparation was added 2 mg Trolox® in 100 μL ethanol and 100 μL saline. The ethanol was necessary to aid in the dissolution of the Trolox®. To the control preparation was added 100 μL ethanol and 100 μL saline to account for the additional saline or ethanol added with the Trolox.

[6] = Radiolabelling yield (RCP) by reversed phase HPLC of 99mTc-labelled depreotide from lyophilized kits with gentisic acid; conditions: when included in formulated kits
Method: Lyophilized kit vials were prepared containing depreotide, GA, and other components as described in Table 1. Formulations were adjusted to pH 7.4 or 8.5 (as noted) prior to lyophilization.

In the case of Cc1c(C)c2c(c(C)c1O)CCC(C)(C(=O)O)O2 (stereo not drawn) [Trolox®, 6-hydroxy-2,5,7,8-tetramethylchroman-2-carboxylic acid], the “effect on radiolabelling yield and stability of 99mTc-labelled non-peptide chelator” value [1] is reported as “increases the radiolabelling yield and the stability”, the “effect on radiolabelling yield and stability of 99mTc-labelled peptide chelator” value [2] is reported as “increases the radiolabelling yield and the stability” and the “effect on radiolabelling yield and stability of 99mTc depreotide” value [3] is reported as “increases the radiolabelling yield and the stability”. For the same compound, the “stabilization of 99mTc-depreotide” value [4] was “stabilizes” and the “effect on radiolabelling yield and stability of 99mTc-peptide” value [5] was “increases the radiolabelling yield and the stability”.

For O=C(O)c1cc(O)ccc1O [gentisic acid, Gentisic acid], the “effect on radiolabelling yield and stability of 99mTc-depreotide” value [6] was “decreases the radiochemical purity”.
